Results published in publication PMC7354438 (Viruses, 2020).
Counter-ions that a name gives are not always drawn.

These compounds were tested on hCoV-19/Norway/Trondheim-E9/2020 (assay: Drug test: viability of SARS-CoV-2-infected Vero-E6 cells (CellTiter-Glo)). Conditions: not given.
Format: cell-based
Set-up: AUC: unit not given beside the values

Row | Compound | AUC | rescue of cells from virus-mediated death
1 | CN1CCC[C@H]1c1cccnc1 [nicotine] | 239 | rescued cells from virus-mediated death but altered the cell morphology

Same assay, conditions: 72 h

Row | Compound | AUC
2 | C[C@H]1O[C@H](O[C@H]2[C@H](O)[C@@H](O)[C@@H](O)[C@H](O)[C@@H]2O)[C@@H](N)C[C@@H]1NC(=N)C(=O)O [Kasugamycin] | 88,55
3 | CC(=O)O[C@H]1C[C@H](O[C@H]2[C@@H](O)C[C@H](O[C@H]3[C@@H](O)C[C@H](O[C@H]4CC[C@@]5(C)[C@H](CC[C@@H]6[C@@H]5C[C@@H](O)[C@]5(C)[C@@H](C7=CC(=O)OC7)CC[C@]65O)C4)O[C@@H]3C)O[C@@H]2C)O[C@H](C)[C@H]1O[C@@H]1O[C@H](CO)[C@@H](O)[C@H](O)[C@H]1O [Lanatoside C] | 54,25
4 | CC[C@@]1([C@@H]2O[C@@H]([C@H]3O[C@@](O)(CO)[C@H](C)C[C@@H]3C)C[C@@H]2C)CC[C@H]([C@]2(C)CC[C@]3(C[C@H](O)[C@@H](C)[C@@H]([C@@H](C)[C@@H](OC)[C@H](C)C(=O)O)O3)O2)O1 [Monensin] | 254,31
5 | CO[C@@]1(NC(=O)C(C(=O)[O-])c2ccc(O)cc2)C(=O)N2C(C(=O)[O-])=C(CSc3nnnn3C)CO[C@@H]21.[Na+].[Na+] (some centres unmarked) [Moxalactam sodium salt] | 18,13
6 | N=C(N)c1ccc2cc(OC(=O)c3ccc(N=C(N)N)cc3)ccc2c1 [Nafamostat] | 166,53
7 | CN[C@H](CC(C)C)C(=O)N[C@H]1C(=O)N[C@@H](CC(N)=O)C(=O)N[C@H]2C(=O)N[C@H]3C(=O)N[C@H](C(=O)N[C@H](C(=O)O)c4cc(O)cc(O)c4-c4cc3ccc4O)[C@H](O[C@H]3C[C@](C)(N)[C@@H](O)[C@H](C)O3)c3ccc(c(Cl)c3)Oc3cc2cc(c3O[C@@H]2O[C@H](CO)[C@@H](O)[C@H](O)[C@H]2O[C@H]2C[C@](C)(NCc3ccc(-c4ccc(Cl)cc4)cc3)[C@@H](O)[C@H](C)O2)Oc2ccc(cc2Cl)[C@H]1O [Oritavancin] | 163,24
8 | C[C@@H]1O[C@@H](O[C@H]2C[C@@H](O)[C@]3(CO)[C@H]4[C@H](O)C[C@]5(C)[C@@H](C6=CC(=O)OC6)CC[C@]5(O)[C@@H]4CC[C@]3(O)C2)[C@H](O)[C@H](O)[C@H]1O [Ouabain octahydrate] | 41,93
9 | CC(C)OC(=O)[C@H](C)N[P@](=O)(OC[C@H]1O[C@@H](n2ccc(=O)[nH]c2=O)[C@](C)(F)[C@@H]1O)Oc1ccccc1 [PSI-7977 (Sofosbuvir), Sofosbuvir] | 131,11
10 | CS(=O)(=O)O.Cc1ccc2c(c1)c1c3n2CCNC3CCC1 (centres unmarked) [Pirlindole mesylate] | 120,4
11 | CO[C@H]1C[C@@H]2CC[C@@H](C)[C@@](O)(O2)C(=O)C(=O)N2CCCC[C@H]2C(=O)O[C@H]([C@H](C)C[C@@H]2CC[C@@H](O)[C@H](OC)C2)CC(=O)[C@H](C)/C=C(\C)[C@@H](O)[C@@H](OC)C(=O)[C@H](C)C[C@H](C)/C=C/C=C/C=C/1C [Rapamycin] | 46,9
12 | CC[C@H](CO)Nc1nc(NCc2ccccc2)c2ncn(C(C)C)c2n1 [Roscovitine] | 137,97
13 | C[C@H]1O[C@@H](O[C@H]2CC[C@@]3(C)[C@@H](CC[C@]4(C)[C@@H]3C=C[C@]35OC[C@@]6(CCC(C)(C)C[C@H]63)[C@@H](O)C[C@]54C)[C@]2(C)CO)[C@H](O)[C@@H](O[C@@H]2O[C@H](CO)[C@@H](O)[C@H](O)[C@H]2O)[C@H]1O [Saikosaponin A] | 77
14 | C[C@]12Cc3c[nH]nc3C[C@@H]1CC[C@@H]1[C@@H]2CC[C@@]2(C)[C@H]1CC[C@]2(C)O [Stanozolol] | 161,7
15 | CN[C@@H]1C[C@H]2O[C@@](C)([C@@H]1OC)n1c3ccccc3c3c4c(c5c6ccccc6n2c5c31)C(=O)NC4 [Staurosporine] | 15,75
16 | Cc1ccc(C(=O)Nc2ccc(S(=O)(=O)O)c3cc(S(=O)(=O)O)cc(S(=O)(=O)O)c23)cc1NC(=O)c1cccc(NC(=O)Nc2cccc(C(=O)Nc3cc(C(=O)Nc4ccc(S(=O)(=O)O)c5cc(S(=O)(=O)O)cc(S(=O)(=O)O)c45)ccc3C)c2)c1 [Suramin] | 94,57
17 | CCCCCCCCCCNCCN[C@@]1(C)C[C@H](O[C@H]2[C@H](Oc3c4cc5cc3Oc3ccc(cc3Cl)[C@@H](O)[C@@H](NC(=O)[C@@H](CC(C)C)NC)C(=O)N[C@@H](CC(N)=O)C(=O)N[C@H]5C(=O)N[C@H]3C(=O)N[C@H](C(=O)N[C@H](C(=O)O)c5cc(O)c(CNCP(=O)(O)O)c(O)c5-c5cc3ccc5O)[C@H](O)c3ccc(c(Cl)c3)O4)O[C@H](CO)[C@@H](O)[C@@H]2O)O[C@@H](C)[C@H]1O [Telavancin] | 139,65
18 | Abamectin | 151,97
19 | Chicoric acid | 93,1
20 | Clomiprade hydrochloride | 74,69

Same assay, conditions: area under the dose-response curve of viability of virus-infected Vero-E6 cells; moi 0.1; 72 h; 7 concentrations; decimal comma

Row | Compound | AUC
21 | CCN(CCO)CCCC(C)Nc1ccnc2cc(Cl)ccc12 (centres unmarked) [Hydroxychloroquine] | 147,63
22 | COc1ccc2c(c1)c(CC(=O)O)c(C)n2C(=O)c1ccc(Cl)cc1 [Indomethacin] | 104,51
23 | CCC(C)n1ncn(-c2ccc(N3CCN(c4ccc(OCC5COC(Cn6cncn6)(c6ccc(Cl)cc6Cl)O5)cc4)CC3)cc2)c1=O (centres unmarked) [Itraconazole] | 110,18
24 | Cc1oncc1C(=O)Nc1ccc(C(F)(F)F)cc1 [Leflunomide] | 47,95
25 | COc1cccc(N2CCN(C3=Nc4c(F)cccc4[C@H](CC(=O)O)N3c3cc(C(F)(F)F)ccc3OC)CC2)c1 [Letermovir] | 134,12
26 | Nc1nc(=O)c2ncn([C@@H]3C[C@H](CO)[C@H]3CO)c2[nH]1 [Lobucavir] | 153,65
27 | Cc1cccc(C)c1OCC(=O)N[C@@H](Cc1ccccc1)[C@@H](O)C[C@H](Cc1ccccc1)NC(=O)[C@H](C(C)C)N1CCCNC1=O [Lopinavir] | 157,36
28 | CC[C@H](C)C(=O)O[C@H]1C[C@@H](C)C=C2C=C[C@H](C)[C@H](CC[C@@H]3C[C@@H](O)CC(=O)O3)[C@H]21 [Lovastatin] | 204,26
29 | O=c1cc(-c2ccc(O)c(O)c2)oc2cc(O)cc(O)c12 [Luteolin] | 119,07
30 | COC(=O)C1=C(C)NC(C)=C(C(=O)OCCN2CCN(C(c3ccccc3)c3ccccc3)CC2)C1c1cccc([N+](=O)[O-])c1 (centres unmarked) [Manidipine] | 133
31 | CC(C)Nc1nc2cc(Cl)c(Cl)cc2n1[C@H]1O[C@@H](CO)[C@H](O)[C@@H]1O [Maribavir] | 145,81
32 | CC12CC3CC(C)(C1)CC(N)(C3)C2 [Memantine] | 115,78
33 | CN(C)C(=N)N=C(N)N [Metformin (1,1-Dimethylbiguanide), 1,1-Dimethylbiguanide] | 116,76
34 | CN(C)c1ccc(O)c2c1C[C@H]1C[C@H]3[C@H](N(C)C)C(O)=C(C(N)=O)C(=O)[C@@]3(O)C(O)=C1C2=O [Minocycline] | 119,14
35 | O=C1c2c(O)ccc(O)c2C(=O)c2c(NCCNCCO)ccc(NCCNCCO)c21 [Mitoxantrone] | 125,09
36 | COc1c(C)c2c(c(O)c1C/C=C(\C)CCC(=O)O)C(=O)OC2 [Mycophenolic acid] | 103,74
37 | O=C(Nc1ccc([N+](=O)[O-])cc1Cl)c1cc(Cl)ccc1O [Niclosamide] | 149,52
38 | CC(=O)Oc1ccccc1C(=O)Nc1ncc([N+](=O)[O-])s1 [Nitazoxanide] | 120,33
39 | CO[C@@H]1[C@@H](OC(N)=O)[C@@H](O)[C@H](Oc2ccc3c(O)c(NC(=O)c4ccc(O)c(CC=C(C)C)c4)c(=O)oc3c2C)OC1(C)C [Novobiocin] | 100,73
40 | COc1ccc2[nH]c([S+]([O-])Cc3ncc(C)c(OC)c3C)nc2c1 (centres unmarked) [Omeprazole] | 139,02
41 | O=C(O)[C@H]1C2CCC(CC2)[C@@H]1Nc1nc(-c2c[nH]c3ncc(F)cc23)ncc1F [Pimodivir] | 126,91

Row | Compound | AUC
42 | Cc1cc(CCCOc2c(C)cc(-c3noc(C(F)(F)F)n3)cc2C)on1 [Pleconaril] | 141,75
43 | CCN(CC)CCCC(C)Nc1c2ccc(Cl)cc2nc2ccc(OC)cc12 (centres unmarked) [Quinacrine dihydrochloride] | 105,63
44 | O=C(c1ccc(OCCN2CCCCC2)cc1)c1c(-c2ccc(O)cc2)sc2cc(O)ccc12 [Raloxifene] | 199,57
45 | CNC(=C[N+](=O)[O-])NCCSCc1ccc(CN(C)C)o1 [Ranitidine] | 94,08
46 | CNC(=O)c1cc(Oc2ccc(NC(=O)Nc3ccc(Cl)c(C(F)(F)F)c3)c(F)c2)ccn1 [Regorafenib] | 24,12
47 | NC(=O)c1ncn([C@@H]2O[C@H](CO)[C@@H](O)[C@H]2O)n1 [Ribavirin] | 134,26
48 | CC(C)c1nc(CN(C)C(=O)N[C@H](C(=O)N[C@@H](Cc2ccccc2)C[C@H](O)[C@H](Cc2ccccc2)NC(=O)OCc2cncs2)C(C)C)cs1 [Ritonavir] | 137,69
49 | CC(C)(C)c1cnc(CSc2cnc(NC(=O)C3CCNCC3)s2)o1 [SNS-032] | 96,25
50 | CCC(C)(C)C(=O)O[C@H]1C[C@@H](C)C=C2C=C[C@H](C)[C@H](CC[C@@H]3C[C@@H](O)CC(=O)O3)[C@H]21 [Simvastatin] | 163,03
51 | CNC(=O)c1cc(Oc2ccc(NC(=O)Nc3ccc(Cl)c(C(F)(F)F)c3)cc2)ccn1 [Sorafenib (BAY 43-9006), Sorafenib] | 33,12
52 | CC/C(=C(\c1ccccc1)c1ccc(OCCN(C)C)cc1)c1ccccc1 [Tamoxifen] | 54,67
53 | CC(C)OC(=O)OCOP(=O)(CO[C@H](C)Cn1cnc2c(N)ncnc21)OCOC(=O)OC(C)C [Tenofovir disoproxil fumarate] | 137,2
54 | C/C(O)=C(\C#N)C(=O)Nc1ccc(C(F)(F)F)cc1 [Teriflunomide] | 72,87
55 | CCN(CC)CCOc1ccc2c(c1)C(=O)c1cc(OCCN(CC)CC)ccc1-2 [Tilorone (dihydrochloride), Tilorone] | 83,72
56 | CC[C@@]1(O)C(=O)OCc2c1cc1n(c2=O)Cc2cc3c(CN(C)C)c(O)ccc3nc2-1 [Topotecan] | 124,6
57 | CN(C)CCOc1ccc(/C(=C(/CCCl)c2ccccc2)c2ccccc2)cc1 [Toremifene] | 27,02
58 | O=c1[nH]c(=O)n([C@H]2C[C@H](O)[C@@H](CO)O2)cc1C(F)(F)F [Trifluridine] | 107,17
59 | CC(C)[C@H](N)C(=O)OCCOCn1cnc2c(=O)[nH]c(N)nc21 [Valaciclovir] | 134,61
60 | O=C(/C=C\n1cnc(-c2cc(C(F)(F)F)cc(C(F)(F)F)c2)n1)NNc1ccccn1 [Verdinexor] | 83,93
61 | CC(=O)N[C@H]1[C@H]([C@H](O)[C@H](O)CO)OC(C(=O)O)=C[C@@H]1N=C(N)N [Zanamivir] | 113,54
